What follows are compounds tested on genotype 1/2 chimeric cell culture derived HCV (HCVcc) (assay: Genotype 1/2 chimeric HCVcc assay (nano-luciferase, HCV replication)). Conditions: Hepatitis C virus.
Assay type: cell-based
Method: Naïve Huh-7.5 target cells were plated at 2400 cells/well in 25 μL of culture media in 384-well plates (Greiner bio-one, μ clear black). After overnight incubation, compounds serially diluted in 10 μL of cell culture media were added. After 2 h compound treatment, cells were inoculated with 40 μL of genotype 1/2 chimeric cell culture derived HCV (HCVcc) which express structural proteins of an HCV genotype 1a isolate (TN accession number EF621489) and non-structural proteins of HCV genotype 2a (JFH-1) with nano-luciferase reporter. At 72 h post infection, nano-luciferase activity (Nano-Glo™, Promega) and cellular ATP (Cell titer-Glo™, Promega) were measured as a marker for HCV replication and cytotoxicity, respectively. EC50 and CC50 were calculated by non-linear regression analyzing using GraphPad Prism (GraphPad Software).

Row | Compound | EC50
1 | O=C(NCCCN1CCC(N2CCCCC2)CC1)c1ccc(-c2ccc(C(F)(F)F)cc2)s1 [Compound 1081] | 100 to 1000 nM
2 | O=C(NCCCN1CCC(N2CCCCC2)CC1)c1ccc(-c2ccc(F)cc2Cl)cc1 [Compound 1132] | 100 to 1000 nM
3 | O=C(NCCCN1CCC(N2CCCCC2)CC1)c1ccc(C2CCCCC2)cc1 [Compound 1003] | 100 to 1000 nM
4 | O=C(NCCCN1CCC(N2CCCCC2)CC1)c1ccc2c(c1)NC(=O)c1ccccc1S2 [Compound 1066] | 1000 to 10000 nM
5 | Cc1ccccc1-c1ccc(C(=O)NCCCN2CCC(N3CCCCC3)CC2)cc1 [Compound 1015] | 100 to 1000 nM
6 | NC(=O)c1ccc(-c2ccc(C(=O)NCCCN3CCC(N4CCCCC4)CC3)cc2)cc1 [Compound 1129] | > 10000 nM
7 | O=S(=O)(NCCCN1CCC(N2CCCCC2)CC1)c1ccc(-c2ccc(C(F)(F)F)cc2)cc1 [Compound 1093] | 100 to 1000 nM
8 | CN(C)c1ccc(-c2ccc(C(=O)NCCCN3CCC(N4CCCCC4)CC3)c(Cl)c2)cc1 [Compound 1154] | 100 to 1000 nM
9 | Cc1ccc(-c2ccc(C(=O)NCCCN3CCC(N4CCCCC4)CC3)cc2)cc1 [Compound 1016] | 100 to 1000 nM
10 | O=C(NCCCN1CCC(N2CCCCC2)CC1)c1ccc(Oc2ccc(C(F)(F)F)cc2)cc1 [Compound 1111] | 100 to 1000 nM
11 | O=C(NCCCN1CCC(Cc2ccccc2)CC1)c1ccc(Oc2ccccc2)cc1 [Compound 1042] | 1000 to 10000 nM
12 | O=C(NCCCN1CCC(N2CCCCC2)CC1)c1ccc(-c2ccccc2Cl)cc1 [Compound 1146] | 100 to 1000 nM
13 | O=C(NCCCN1CCC(N2CCCCC2)CC1)c1ccc(-c2ccc(CN3CCOCC3)cc2)cc1 [Compound 1138] | 1000 to 10000 nM
14 | O=C(NCCCN1CCC(N2CCCCC2)CC1)c1cc2ccccc2[nH]1 [Compound 1010] | 1000 to 10000 nM
15 | CN(CCCN1CCC(N2CCCCC2)CC1)C(=O)c1ccc(Oc2ccccc2)cc1 [Compound 1047] | 1000 to 10000 nM
16 | O=C(NCCCN1CCC(N2CCCCC2)CC1)c1ccc(-c2ccc(C(F)(F)F)cc2)c(C(F)(F)F)c1 [Compound 1105] | 100 to 1000 nM
17 | O=C(NCCCN1CCN(c2ccccc2)CC1)c1ccc(Oc2ccccc2)cc1 [Compound 1040] | 1000 to 10000 nM

Same assay, conditions: Hepatitis C virus, Huh7.5, 72 h

Row | Compound | EC50
18 | CCOC(=O)c1c(NC(=O)NCc2c(Br)sc3c2CCN(C)C3)sc2c1CCCC2 [Compound 199] | < 100 nM
19 | CCN1CCc2c(sc(-n3cccc3)c2CNC(=O)Nc2sc3c(c2C(=O)OC(C)(C)C)CC(C)CC3)C1 (stereo not shown) [Compound 232] | < 100 nM
20 | CCN1CCc2c(sc(-n3cccc3)c2CNC(=O)Nc2sc3c(c2C(=O)OC)CCCC3)C1 [Compound 127] | < 100 nM
21 | O=C(NCc1c(C(F)(F)F)sc2c1CCNC2)Nc1sc2c(c1C(=O)OC1CCCCC1)CCCC2 [Compound 272] | < 100 nM
22 | Cc1sc(NC(=O)NCc2c(-c3cccc(Cl)c3)sc3c2CCNC3)c(C(=O)OC(C)(C)C)c1C [Compound 363] | < 100 nM
23 | CCOC(=O)c1c(NC(=O)NCc2c(C(F)(F)F)sc3c2CCNC3)sc2c1CCOC2 [Compound 150] | < 100 nM
24 | CCOC(=O)c1c(NC(=O)NCc2c(-n3cccc3)sc3c2CCNC3)sc(C)c1C [Compound 70] | 100 to 1000 nM
25 | Cc1sc(NC(=O)NCc2c(C(F)(F)F)sc3c2CCN(C)C3)c(C(=O)OC(C)C)c1C [Compound 295] | < 100 nM
26 | CC(C)OC(=O)c1c(NC(=O)NCc2c(-n3cccc3)sc3c2CCN(C)C3)sc2c1CCCC2 [Compound 156] | < 100 nM
27 | Cc1nnc(-c2c(NC(=O)NCc3c(-n4cccc4)sc4c3CCN(C)C4)sc(C)c2C)o1 [Compound 74] | < 100 nM
28 | CCN1CCc2c(sc(-n3cccc3)c2CNC(=O)Nc2sc3c(c2C(=O)O)CCCC3)C1 [Compound 16] | > 10000 nM
29 | CCOC(=O)c1c(NC(=O)NCc2c(-c3ccco3)sc3c2CCNC3)sc2c1CCCC2 [Compound 338] | < 100 nM
30 | CCOC(=O)c1c(NC(=O)NCc2c(C(F)(F)F)sc3c2CCN(C(=O)CN)C3)sc2c1CCCC2 [Compound 305] | < 100 nM
31 | CCN1CCc2c(sc(Br)c2CNC(=O)Nc2sc3c(c2C(=O)OC(C)(C)C)CCC3)C1 [Compound 300] | < 100 nM
32 | CCN1CCc2c(sc(-n3cccc3)c2CNC(=O)Nc2sc3c(c2C(=O)OC(C)(C)C)CC(C)CC3C)C1 (stereo not shown) [Compound 294] | < 100 nM
33 | CCN1CCc2c(sc(C(F)(F)F)c2CNC(=O)Nc2sc3c(c2C(=O)OC)CCCC3)C1 [Compound 178] | < 100 nM
34 | CCOC(=O)c1c(NC(=O)NCc2c(-n3cccc3)sc3c2CCN(CC)C3)sc2c1CCN(CC)C2 [Compound 26] | < 100 nM
35 | Cc1sc(NC(=O)NCc2c(-n3cccc3)sc3c2CCNC3)c(C(=O)OC(C)C)c1C [Compound 215] | < 100 nM
36 | CN1CCc2c(sc(-n3cccc3)c2CNC(=O)Nc2sc3c(c2C(=O)OC(C)(C)C)CCC3)C1 [Compound 298] | < 100 nM

Row | Compound | EC50
37 | CCc1c(C)sc(NC(=O)NCc2c(-n3cccc3)sc3c2CCNC3)c1C(=O)OC(C)(C)C [Compound 269] | < 100 nM
38 | Cc1sc(NC(=O)NCc2c(-c3ccc(F)cc3)sc3c2CCNC3)c(C(=O)OC(C)(C)C)c1C [Compound 368] | 100 to 1000 nM
39 | CCOC(=O)c1c(NC(=O)NCc2csc(CN(C)C)c2C)sc2c1CCCC2 [Compound 188] | < 100 nM
40 | CCc1sc(NC(=O)NCc2c(C(F)(F)F)sc3c2CCN(CCN(C)C)C3)c(C(=O)OC(C)(C)C)c1C [Compound 356] | < 100 nM
41 | O=C(NCc1c(-n2cccc2)sc2c1CCNC2)Nc1sc2c(c1C(=O)OC1CCCC1)CCCC2 [Compound 220] | < 100 nM
42 | CC(C)N1CCc2c(sc(-n3cccc3)c2CNC(=O)Nc2sc3c(c2C(=O)OC(C)(C)C)CCCC3)C1 [Compound 98] | < 100 nM
43 | CC(C)OC(=O)c1c(NC(=O)NCc2c(-c3ccccc3)sc3c2CCNC3)sc2c1CCCC2 [Compound 226] | < 100 nM
44 | CCOC(=O)c1c(NC(=O)NCc2c(-n3cnc(C)n3)sc3c2CCNC3)sc2c1CCCC2 [Compound 87] | 100 to 1000 nM
45 | CCOC(=O)c1c(NC(=O)NCc2c(-n3cccc3)sc(C(=O)OC(C)(C)C)c2C)sc2c1CCCC2 [Compound 50] | 1000 to 10000 nM
46 | CCOC(=O)c1c(NC(=O)NCc2c(-n3cccc3)sc3c2CCN(CC)C3)sc2c1CC(C)CC2 (stereo not shown) [Compound 192] | < 100 nM
47 | CCOC(=O)c1c(NC(=O)NCc2c(Br)sc3c2CCNC3)sc2c1CCC(F)(F)C2 [Compound 218] | < 100 nM
48 | CCN1CCc2c(sc(-n3cccc3)c2CNC(=O)Nc2sc3c(c2C(=O)N(C)C)CCCC3)C1 [Compound 122] | 100 to 1000 nM
49 | CCc1sc2c(c1CNC(=O)Nc1sc3c(c1C(=O)OC(C)(C)C)CCOC3)CCNC2 [Compound 333] | < 100 nM
50 | COC(=O)c1c(NC(=O)NCc2c(C(F)(F)F)sc3c2CC[N+](C)(C)C3)sc2c1CCCC2 [Compound 223] | 1000 to 10000 nM
51 | CC(C)(C)OC(=O)c1c(NC(=O)NCc2c(-c3ccnc(Cl)c3)sc3c2CCNC3)sc2c1CCCC2 [Compound 308] | < 100 nM
52 | CCOC(=O)c1c(NC(=O)NCc2c(-n3cccc3)sc3c2CCN(C)C3)sc(C)c1C [Compound 71] | < 100 nM
53 | CCOC(=O)c1c(NC(=O)C(=O)NCc2c(-n3cccc3)sc3c2CCN(CC)C3)sc2c1CCCC2 [Compound 78] | < 100 nM
54 | O=C(NCc1c(-n2cccc2)sc2c1CCNC2)Nc1sc2c(c1C(=O)OC1CCCCC1)CCCC2 [Compound 273] | < 100 nM
55 | CCOC(=O)c1c(NC(=O)NCc2c(-n3cccc3)sc3c2CCNC3)sc2ccccc12 [Compound 63] | 100 to 1000 nM

Row | Compound | EC50
56 | CCc1sc2c(c1CNC(=O)Nc1sc3c(c1C(=O)OC(C)(C)C)CCC3)CCNC2 [Compound 314] | < 100 nM
57 | CC(C)(C)OC(=O)c1c(NC(=O)NCc2c(-n3cccc3)sc3c2CCN(CCC(F)(F)F)C3)sc2c1CCCC2 [Compound 241] | < 100 nM
58 | CN1CCc2c(sc(-n3cccc3)c2CNC(=O)Nc2sc3c(c2C(=O)OC2CCCC2)CCCC3)C1 [Compound 221] | < 100 nM
59 | CC(C)(C)OC(=O)c1c(NC(=O)NCc2c(-c3ccc(F)nc3)sc3c2CCNC3)sc2c1CCCC2 [Compound 309] | < 100 nM
60 | CC(C)(C)OC(=O)c1c(NC(=O)NCc2c(-c3ccccc3)sc3c2CCNC3)sc2c1CCCC2 [Compound 130] | < 100 nM
61 | CCN1CCc2c(sc(-n3cccc3)c2CNC(=O)Nc2sc3c(c2C(=O)NCCCCN)CCCC3)C1 [Compound 91] | 100 to 1000 nM
62 | CCOC(=O)c1c(NC(=O)c2cc3c(s2)CCCC3)sc2c1CCN(CC)C2 [Compound 17] | 1000 to 10000 nM
63 | CCN1CCc2c(sc(-n3cccc3)c2CNC(=O)Nc2sc3c(c2C(=O)OC(C)(C)C)CCC(C)C3)C1 (stereo not shown) [Compound 211] | < 100 nM
64 | O=C(NCc1c(C(F)(F)F)sc2c1CCNC2)Nc1sc2c(c1C(=O)OC1CCOC1)CCCC2 (stereo not shown) [Compound 326] | < 100 nM
65 | CCN1CCc2c(sc(-n3cccc3)c2CNC(=O)Nc2sc3c(c2-c2nnc(C)o2)CCCC3)C1 [Compound 43] | < 100 nM
66 | CCOC(=O)c1c(NC(=O)NCc2cccc(CN(C)C)c2)sc2c1CCCC2 [Compound 102] | 100 to 1000 nM
67 | CCOC(=O)c1cc(C(C)C)sc1NC(=O)NCc1c(-n2cccc2)sc2c1CCN(CC)C2 [Compound 24] | 100 to 1000 nM
68 | CCN1CCc2c(sc(-n3cccc3)c2CNC(=O)Nc2ccccc2)C1 [Compound 8] | > 10000 nM
69 | CC1Cc2c(sc(NC(=O)NCc3c(C(F)(F)F)sc4c3CCNC4)c2C(=O)OC(C)(C)C)C(C)C1 (stereo not shown) [Compound 266] | < 100 nM
70 | CCOC(=O)c1c(NC(=O)NCc2ccc(CN(C)C)cc2)sc2c1CCCC2 [Compound 29] | 100 to 1000 nM
71 | Cc1nnc(-c2c(NC(=O)NCc3c(-n4cccc4)sc4c3CCNC4)sc3c2CCCC3)o1 [Compound 60] | 100 to 1000 nM
72 | Cc1sc(NC(=O)NCc2c(Br)sc3c2CCN(C)C3)c(C(=O)OC(C)C)c1C [Compound 297] | < 100 nM
73 | CC1CCc2c(sc(NC(=O)NCc3c(Br)sc4c3CCNC4)c2C(=O)OC(C)(C)C)C1 (stereo not shown) [Compound 213] | < 100 nM

From US9809602B2, “Compounds for treating viral infections” (INSTITUT PASTEUR KOREA, priority 2014, dated 2017)
